The test system of data set [1] is wheat septoria bloth microorganism (Septoria tritici). As to the kind of experiment: Antimicroorganism effect, mycelial extension on PDA plate. It counts as cell-based. The note with it: Zymoseptoria tritici, PDA plate medium, 50 mg/l, 1 to 3 days, read-out: growth inhibition grade.
Data set [2] concerns wheat stagonospora blotch microorganism (Phaeosphaeria nodorum). Described as above. It counts as cell-based. The note with it: Parastagonospora nodorum, PDA plate medium, 50 mg/l, 1 to 3 days, read-out: growth inhibition grade.
The test system of data set [3] is wheat eye spot microorganism (Pseudocercosporella herpotrichoides). Described as above. It counts as cell-based. The following applies: Oculimacula yallundae, PDA plate medium, 50 mg/l, 1 to 3 days, read-out: growth inhibition grade.
Data set [4] concerns wheat pink snow mold microorganism (Microdochium nivale). The data set is described as above. The data set is classed as cell-based. The note with it: PDA plate medium, 50 mg/l, 1 to 3 days, read-out: growth inhibition grade.
In data set [5] the test system is wheat take-all microorganism (Gaeumannomyces graminis). The data set is described as above. It counts as cell-based. The note with it: PDA plate medium, 50 mg/l, 1 to 3 days, read-out: growth inhibition grade.
Data set [6] has as its system barley stripe microorganism (Pyrenophora graminea). Described as above. It counts as cell-based. The note with it: PDA plate medium, 50 mg/l, 1 to 3 days, read-out: growth inhibition grade.
Data set [7] relates to barley scald microorganism (Rhynchosporium secalis). Described as above. The following applies: PDA plate medium, 50 mg/l, 1 to 3 days, read-out: growth inhibition grade. It counts as cell-based.
The subject of data set [8] is wheat fusarium blight microorganism (Fusarium graminearum). As to the kind of experiment: microbe, parasite or virus in culture. The data set is classed as cell-based. The note with it: read-out: growth inhibition grade.
For data set [9], the system named is barley loose smut microorganism (Ustilago nuda). As to the kind of experiment: Antimicroorganism effect, mycelial extension on PDA plate. The data set is classed as cell-based. The note with it: PDA plate medium, 50 mg/l, 1 to 3 days, read-out: growth inhibition grade.
The test system of data set [10] is rice blast microorganism (Pyricularia oryzae). Put plainly: microbe, parasite or virus in culture. It counts as cell-based. The note with it: read-out: growth inhibition grade.
In data set [11] the test system is ricesheath blight microorganism (Rhizoctonia solani). Put plainly: Antimicroorganism effect, mycelial extension on PDA plate. The data set is classed as cell-based. The following applies: PDA plate medium, 50 mg/l, 1 to 3 days, read-out: growth inhibition grade.
For data set [12], the system named is rice bakanae disease microorganism (Giberella fujikuroi). The data set is described as above. It counts as cell-based. The note with it: PDA plate medium, 50 mg/l, 1 to 3 days, read-out: growth inhibition grade.
Data set [13] relates to rice seedling blight microorganism (Rhizopus) (Rhizopus oryzae). Described as above. The data set is classed as cell-based. The note with it: Rhizopus arrhizus, PDA plate medium, 50 mg/l, 1 to 3 days, read-out: growth inhibition grade.
The test system of data set [14] is apple alternaria blotch microorganism (Alternaria alternata). Described as above. The following applies: PDA plate medium, 50 mg/l, 1 to 3 days, read-out: growth inhibition grade. It counts as cell-based.
Data set [15] deals with sclerotinia rot microorganism (Sclerotinia sclerotiorum). Described as above. It counts as cell-based. The following applies: PDA plate medium, 50 mg/l, 1 to 3 days, read-out: growth inhibition grade.
Data set [16] deals with gray mold microorganism (Botritis cinerea). The data set is described as above. It counts as cell-based. The note with it: PDA plate medium, 50 mg/l, 1 to 3 days, read-out: growth inhibition grade.
For data set [17], the system named is anthracnose microorganism (Glomerella cingulata). Described as above. The data set is classed as cell-based. The following applies: Colletotrichum gloeosporioides, PDA plate medium, 50 mg/l, 1 to 3 days, read-out: growth inhibition grade.
Data set [18] has as its system cucumber fusarium wilt microorganism (Fusarium oxysporum). The data set is described as above. The data set is classed as cell-based. The note with it: PDA plate medium, 50 mg/l, 1 to 3 days, read-out: growth inhibition grade.
The subject of data set [19] is citrous blue mold microorganism (Penicillium italicum). The data set is described as above. The data set is classed as cell-based. The note with it: PDA plate medium, 50 mg/l, 1 to 3 days, read-out: growth inhibition grade.
Data set [20] has as its system sugar beet cercospora leaf spot microorganism (Cercospora beticola). The description is as above. The data set is classed as cell-based. The note with it: PDA plate medium, 50 mg/l, 1 to 3 days, read-out: growth inhibition grade.
In data set [21] the test system is Aspergillus microorganism (Aspergillus sp.). The data set is described as above. The data set is classed as cell-based. The note with it: PDA plate medium, 50 mg/l, 1 to 3 days, read-out: growth inhibition grade.
For data set [22], the system named is Tricoderma microorganism (Trichoderma sp.). The data set is described as above. It counts as cell-based. The following applies: PDA plate medium, 50 mg/l, 1 to 3 days, read-out: growth inhibition grade.
Data set [23] deals with penicillium microorganism (Penicillium sp.). The data set is described as above. The data set is classed as cell-based. The note with it: PDA plate medium, 50 mg/l, 1 to 3 days, read-out: growth inhibition grade.
In data set [24] the test system is Cladosporium microorganism (Cladosporium sp.). Described as above. It counts as cell-based. The following applies: PDA plate medium, 50 mg/l, 1 to 3 days, read-out: growth inhibition grade.
Data set [25] concerns Mucor microorganism (Mucor sp.). The data set is described as above. It counts as cell-based. The note with it: PDA plate medium, 50 mg/l, 1 to 3 days, read-out: growth inhibition grade.
Data set [26] relates to Aureobasidium microorganism (Aureobasidium sp.). The description is as above. The data set is classed as cell-based. The following applies: PDA plate medium, 50 mg/l, 1 to 3 days, read-out: growth inhibition grade.
In data set [27] the test system is Curvularia microorganism (Curvularia sp.). Described as above. It counts as cell-based. The following applies: PDA plate medium, 50 mg/l, 1 to 3 days, read-out: growth inhibition grade.
The subject of data set [28] is wood denaturing microorganism (Tyromyces palustris). The description is as above. It counts as cell-based. The following applies: PDA plate medium, 50 mg/l, 1 to 3 days, read-out: growth inhibition grade.
Data set [29] relates to wood denaturing microorganism (Coriolus versicolor). The data set is described as above. It counts as cell-based. The following applies: Trametes versicolor, PDA plate medium, 50 mg/l, 1 to 3 days, read-out: growth inhibition grade.
Data set [30] has as its system cucumber gray mold microorganism. Put plainly: Cucumber gray mold preventing effect assay. It counts as in vivo, Botrytis cinerea. The note with it: analogous assay at 25 mg/l. How it is done:
The sprayed leaves were air-dried, and loaded with a paper disc (8 mm in diameter) soaked with a spore suspension of a cucumber gray mold microorganism, and kept at 20 degrees C. and a high humidity. 4 Days after inoculation, the cucumber gray mold severity was investigated, and the protective value was calculated by the following equation. [table]

By inhibition is commonly meant the share of the control response that was lost under treatment. The melting point is the temperature of the solid-liquid transition. `OC1(Cn2cncn2)C(Cc2ccc(F)cc2)CCC12CC2` (single isomer, unassigned) [Compound I-7, 5-(4-fluorobenzyl)-4-(1H-1,2,4-triazol-1-ylmethyl)-4-spiro[2.4]heptanol] gave a melting point of 89 to 90 °C. Besides, the inhibition at 50 µg/mL in data set [1] was above 90%. Further, the inhibition at 50 µg/mL in data set [2] was above 90%. Further, the inhibition at 50 µg/mL in [3] was above 90%. Besides, the inhibition at 50 µg/mL in [4] fell in the range of 70 to 90%. Besides, the inhibition at 50 µg/mL in data set [5] was above 90%. Besides, in [6], the inhibition at 50 µg/mL was above 90%. Besides, the inhibition at 50 µg/mL in [7] is above 90%. Moreover, in data set [8], the inhibition at 50 µg/mL is above 90%. The inhibition at 50 µg/mL in [9] lay in the range of 70 to 90%. Also, in [10], the inhibition at 50 µg/mL is above 90%. Also, in data set [11], the inhibition at 50 µg/mL lay within 70 to 90%. In [12], the inhibition at 50 µg/mL was above 90%. Moreover, the inhibition at 50 µg/mL in data set [13] was in the range of 70 to 90%. In [14], the inhibition at 50 µg/mL fell in the range of 70 to 90%. Besides, in data set [15], the inhibition at 50 µg/mL was above 90%. For the same compound, in data set [16], the inhibition at 50 µg/mL was above 90%. Besides, the inhibition at 50 µg/mL in data set [17] was above 90%. In [18], the inhibition at 50 µg/mL was above 90%. Moreover, the inhibition at 50 µg/mL in data set [19] is above 90%. In [20], the inhibition at 50 µg/mL was above 90%. Moreover, the inhibition at 50 µg/mL in data set [21] was above 90%. Also, the inhibition at 50 µg/mL in [22] was above 90%. Moreover, the inhibition at 50 µg/mL in [23] was above 90%. Further, the inhibition at 50 µg/mL in data set [24] is above 90%. Further, the inhibition at 50 µg/mL in data set [25] lay within 70 to 90%. For the same compound, in [26], the inhibition at 50 µg/mL was in the range of 70 to 90%. Besides, the inhibition at 50 µg/mL in data set [27] lay within 70 to 90%. Further, the inhibition at 50 µg/mL in [28] was above 90%. Besides, in data set [29], the inhibition at 50 µg/mL was above 90%.

`C[C@]12C[C@H]1C[C@H](Cc1ccc(Cl)cc1)[C@@]2(O)Cn1cncn1` (stereo in doubt) [Comparative Compound (A), 3-(4-chlorobenzyl)-1-methyl-2-(1H-1,2,4-triazol-1-ylmethyl)bicyclo[3.1.0]hexan-2-ol, reference compound] yielded a Controlling value in data set [30] of 54%.

As to `OC1(Cn2cncn2)C(Cc2ccc(F)cc2)CCC12CC2` (single isomer, unassigned) [Compound I-8, 5-(4-fluorobenzyl)-4-(1H-1,2,4-triazol-1-ylmethyl)-4-spiro[2.4]heptanol], the melting point lay within 139 to 140 °C.

For `OC1(Cn2cncn2)C(Cc2cccc(Cl)c2)CCC12CC2` (single isomer, unassigned) [Compound I-4, 5-(3-chlorobenzyl)-4-(1H-1,2,4-triazol-1-ylmethyl)-4-spiro[2.4]heptanol], the melting point was 120 to 121 °C.

`OC1(Cn2cncn2)C(Cc2cccc(Cl)c2)CCC12CC2` (single isomer, unassigned) [Compound I-3, 5-(3-chlorobenzyl)-4-(1H-1,2,4-triazol-1-ylmethyl)-4-spiro[2.4]heptanol] had a melting point of 84.5 to 85.5 °C. In data set [1], the inhibition at 50 µg/mL was above 90%. Also, the inhibition at 50 µg/mL in [2] is above 90%. For the same compound, the inhibition at 50 µg/mL in [3] was above 90%. Further, the inhibition at 50 µg/mL in [4] lay in the range of 70 to 90%. For the same compound, in [5], the inhibition at 50 µg/mL was above 90%. In addition, in data set [6], the inhibition at 50 µg/mL was above 90%. For the same compound, the inhibition at 50 µg/mL in [7] is above 90%. Also, in data set [8], the inhibition at 50 µg/mL was above 90%. Also, in [9], the inhibition at 50 µg/mL was in the range of 70 to 90%. Moreover, the inhibition at 50 µg/mL in data set [10] was above 90%. The inhibition at 50 µg/mL in data set [11] is 70 to 90%. In addition, the inhibition at 50 µg/mL in [12] was above 90%. Moreover, the inhibition at 50 µg/mL in data set [13] fell in the range of 70 to 90%. Also, the inhibition at 50 µg/mL in data set [14] lay in the range of 70 to 90%. Also, the inhibition at 50 µg/mL in data set [15] was above 90%. Besides, the inhibition at 50 µg/mL in data set [16] is above 90%. The inhibition at 50 µg/mL in data set [17] is above 90%. For the same compound, in data set [18], the inhibition at 50 µg/mL is above 90%. Further, in [19], the inhibition at 50 µg/mL is above 90%. Besides, the inhibition at 50 µg/mL in data set [20] was above 90%. Further, the inhibition at 50 µg/mL in data set [21] was above 90%. Besides, the inhibition at 50 µg/mL in data set [22] was above 90%. Further, the inhibition at 50 µg/mL in data set [23] was above 90%. For the same compound, the inhibition at 50 µg/mL in [24] is above 90%. Besides, the inhibition at 50 µg/mL in data set [25] fell in the range of 70 to 90%. Also, the inhibition at 50 µg/mL in [26] is 70 to 90%. Besides, in [27], the inhibition at 50 µg/mL lay in the range of 70 to 90%. For the same compound, the inhibition at 50 µg/mL in data set [28] is above 90%. Besides, the inhibition at 50 µg/mL in data set [29] is above 90%.

`OC1(Cn2cncn2)C(Cc2ccc(Cl)cc2)CCC12CC2` (single isomer, unassigned) [Compound I-2, 5-(4-chlorobenzyl)-4-(1H-1,2,4-triazol-1-ylmethyl)-4-spiro[2.4]heptanol] gave a melting point of 166 to 167 °C.

In the case of `CC1(C)CC12CCC(Cc1ccc(Cl)cc1)C2(O)Cn1cncn1` (stereo not drawn) [Compound I-101, 5-(4-chlorobenzyl)-1,1-dimethyl-4-(1H-1,2,4-triazol-1-ylmethyl)-4-spiro[2.4]heptanol], the inhibition at 50 µg/mL in data set [1] was above 90%; in [2] it was above 90%; in data set [3], above 90%; in [4], 70 to 90%; in data set [5], above 90%; in [6], above 90%. Further, the inhibition at 50 µg/mL in [7] is above 90%; in data set [8] it was above 90%; in data set [9], 70 to 90%; in data set [10] it was above 90%; in data set [11] it was 70 to 90%; in data set [12], above 90%. The inhibition at 50 µg/mL in data set [13] was 70 to 90%; in data set [14], 70 to 90%; in [15], above 90%; in [16], above 90%; in data set [17], above 90%; in data set [18], above 90%. Besides, the inhibition at 50 µg/mL in data set [19], in data set [20], in data set [21], in data set [22], in data set [23] and in [24] was above 90% each time. Besides, the inhibition at 50 µg/mL in [25] is 70 to 90%; in data set [26], 70 to 90%; in data set [27], 70 to 90%; in data set [28], above 90%; in data set [29] it was above 90%.
